Data published in US20230183193A1, “4-DIFLUOROMETHYL BENZOYL AMIDES WITH HERBICIDAL ACTION” (BAYER CROPSCIENCE AKTIENGESELLSCHAFT, priority 2017, published 2023).

Columns and labels:
[1] = tested on: Avena fatua; experiment: Pre-emergence herbicidal action, AVEFA; format: in vivo; settings: for herbicidal activity AVEFA: dosage 320 g/ha, scored visually after 3 weeks vs untreated controls
How it was run: (§1)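 Weed seeds were laid out in sandy loam and covered with soil, then the soil surface was treated with an aqueous suspension or emulsion of the formulated compound containing 0.2% wetting agent. Pots stayed in the greenhouse for 3 weeks before damage was rated visually against untreated plants.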

[2] = tested on: ECHCG; experiment: Pre-emergence herbicidal action, ECHCG; format: in vivo, Echinochloa crus-galli
[3] = tested on: ECHCG; experiment: Post-emergence herbicidal action, ECHCG; format: in vivo; settings: 80 g/ha, Table C
How it was run: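 Weed and crop plants grown in sandy loam in the greenhouse, treated at the one-leaf stage 2–3 weeks after sowing. Damage scored visually after about 3 weeks vs untreated controls (0% = control, 100% = dead).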

[4] = tested on: Viola tricolor; experiment: Pre-emergence herbicidal action, VIOTR; format: in vivo; settings: for Herbicidal efficacy against VIOTR: Table K; for herbicidal activity VIOTR: scored visually after 3 weeks vs untreated controls
How it was run: as §1

[5] = tested on: Alopecurus myosuroides; experiment: Post-emergence herbicidal action, ALOMY; format: in vivo; settings: for Herbicidal efficacy against ALOMY: 20 g/ha
How it was run: (§2)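 Greenhouse-grown plants were sprayed at the one-leaf stage, 2–3 weeks after sowing. Damage was scored visually after about 3 weeks against untreated controls, as % action (100% = dead, 0% = like control).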

[6] = tested on: Viola tricolor; experiment: Post-emergence herbicidal action, VIOTR; format: in vivo; settings: for Herbicidal efficacy against VIOTR: 20 g/ha; for herbicidal activity VIOTR: 80 g/ha, Table D
How it was run: as §2

[7] = tested on: Pharbitis purpureum; experiment: Post-emergence herbicidal action, PHBPU; format: in vivo; settings: 80 g/ha, Table D
How it was run: as §2

[8] = tested on: Polygonum convolvulus; experiment: Pre-emergence herbicidal action, POLCO; format: in vivo; settings: Table K
From the text: 1. Pre-Emergence Herbicidal Action Against Harmful Plants Seeds of monocotyledonous and dicotyledonous weed plants and crop plants are laid out in sandy loam soil in wood-fiber pots and covered with soil. The compounds of the invention, formulated in the form of wettable powders (WP) or as emulsion concentrates (EC), are then applied to the surface of the covering soil in the form of an aqueous suspension or emulsion at a water application rate equating to […], with addition of 0.2% wetting agent. After the treatment, the pots are placed in a greenhouse and kept under good growth conditions for the trial plants. The damage to the test plants is scored visually after a test period of 3 weeks by comparison with untreated controls (herbicidal activity in percent (%): 100% activity=the plants have died, 0% activity=like control plants).
For comparison, the herbicidal activity of numerous compounds according to the invention was tested with the structurally closest compounds known from the documents WO 2011/035874, WO 2012/028579 and WO 2012/126932, by the pre- and post-emergence method.

[9] = tested on: Abutilon theophrasti; experiment: Pre-emergence herbicidal action, ABUTH; format: in vivo; settings: for Herbicidal efficacy against ABUTH: Table K; for herbicidal activity ABUTH: scored visually after 3 weeks vs untreated controls
How it was run: as §1

[10] = tested on: Stellaria media; experiment: Pre-emergence herbicidal action, STEME; format: in vivo; settings: dosage 320 g/ha, scored visually after 3 weeks vs untreated controls
How it was run: as §1

[11] = tested on: Setaria viridis; experiment: Pre-emergence herbicidal action, SETVI; format: in vivo; settings: for herbicidal activity SETVI: dosage 320 g/ha, scored visually after 3 weeks vs untreated controls
How it was run: as §1

[12] = tested on: Amaranthus retroflexus; experiment: Pre-emergence herbicidal action, AMARE; format: in vivo; settings: dosage 320 g/ha, scored visually after 3 weeks vs untreated controls
How it was run: as §1

[13] = tested on: Avena fatua; experiment: Post-emergence herbicidal action, AVEFA; format: in vivo; settings: for Herbicidal efficacy against AVEFA: 20 g/ha
How it was run: as §2

[14] = tested on: Setaria viridis; experiment: Post-emergence herbicidal action, SETVI; format: in vivo; settings: for Herbicidal efficacy against SETVI: 20 g/ha; for herbicidal activity SETVI: 80 g/ha, Table C
How it was run: as §2

[15] = tested on: Cyperus serotinus; experiment: Pre-emergence herbicidal action, CYPES; format: in vivo
How it was run: as §1

[16] = tested on: Amaranthus retroflexus; experiment: Post-emergence herbicidal action, AMARE; format: in vivo; settings: 80 g/ha, Table D
How it was run: as §2

[17] = tested on: Matricaria inodora; experiment: Pre-emergence herbicidal action, MATIN; format: in vivo; settings: for Herbicidal efficacy against MATIN: Table K; for herbicidal activity MATIN: scored visually after 3 weeks vs untreated controls
How it was run: as §1

[18] = tested on: Abutilon theophrasti; experiment: Post-emergence herbicidal action, ABUTH; format: in vivo; settings: 80 g/ha, Table D
How it was run: as §2

[19] = tested on: Stellaria media; experiment: Post-emergence herbicidal action, STEME; format: in vivo; settings: for Herbicidal efficacy against STEME: 20 g/ha; for Herbicidal activity STEME: 80 g/ha, Table D
How it was run: as §2

[20] = tested on: Alopecurus myosuroides; experiment: Pre-emergence herbicidal action, ALOMY; format: in vivo
How it was run: as §1

[21] = dosage 320 g/ha, scored visually after 3 weeks vs untreated controls

SMILES	Herbicidal efficacy against AVEFA ([1]; 80 g/ha)	Herbicidal efficacy against AVEFA ([1]; 320 g/ha)	herbicidal activity AVEFA [1] [%]	Herbicidal efficacy against ECHCG ([2]; 80 g/ha)	Herbicidal efficacy against ECHCG ([2]; 320 g/ha)	Herbicidal activity ECHCG [3] [%]	Herbicidal efficacy against VIOTR ([4]; dosage 80 g/ha)	Herbicidal efficacy against VIOTR ([4]; dosage 320 g/ha)	herbicidal activity VIOTR ([4]; dosage 320 g/ha) [%]	Herbicidal efficacy against ALOMY [5]	Herbicidal efficacy against VIOTR [6]	herbicidal activity VIOTR [6] [%]	Herbicidal activity PHBPU [7] [%]	Herbicidal efficacy against POLCO ([8]; dosage 80 g/ha)	Herbicidal efficacy against POLCO ([8]; dosage 320 g/ha)	Herbicidal efficacy against ABUTH ([9]; dosage 80 g/ha)	Herbicidal efficacy against ABUTH ([9]; dosage 320 g/ha)	herbicidal activity ABUTH ([9]; dosage 320 g/ha) [%]	Herbicidal activity STEME [10] [%]	Herbicidal efficacy against SETVI ([11]; 80 g/ha)	further results
CSc1c(C(F)F)ccc(C(=O)Nc2ncnn2C)c1C [Example 4-1, 4-(difluoromethyl)-2-methyl-3-(methylsulfanyl)-N-(1-methyl-1H-1,2,4-triazol-5-yl)benzamide]	30	80	80	70	100	90	100	100	100	70	100	100	100	30	30	90	100	100	90	80	herbicidal activity ALOMY ([5]; 80 g/ha, Table C): 80%; Herbicidal efficacy against SETVI ([11]; 320 g/ha): 100; herbicidal activity SETVI [11]: 100%; herbicidal activity AMARE [12]: 100%; Herbicidal efficacy against AVEFA [13]: 20; Herbicidal efficacy against SETVI [14]: 60; herbicidal activity SETVI [14]: 100%; Herbicidal efficacy against CYPES ([15]; 80 g/ha): 30; Herbicidal efficacy against CYPES ([15]; 320 g/ha): 50; herbicidal activity AMARE [16]: 100%; Herbicidal efficacy against MATIN ([17]; dosage 80 g/ha): 80; Herbicidal efficacy against MATIN ([17]; dosage 320 g/ha): 90; herbicidal activity MATIN ([17]; dosage 320 g/ha): 90%; herbicidal activity ABUTH [18]: 100%; Herbicidal efficacy against STEME [19]: 80; Herbicidal activity STEME [19]: 100%; Herbicidal efficacy against ALOMY ([20]; 320 g/ha): 40
Cc1c(C(=O)Nc2ncnn2C)ccc(C(F)F)c1S(C)(=O)=O [Example 4-3]	30	80	80	100	100	100	100	100	100	30	100	100	100	40	70	100	100	100	100	90	Herbicidal efficacy against SETVI ([11]; 320 g/ha): 100; herbicidal activity SETVI [11]: 100%; herbicidal activity AMARE [12]: 100%; Herbicidal efficacy against AVEFA [13]: 50; herbicidal activity AVEFA ([13]; 80 g/ha, Table C): 90%; Herbicidal efficacy against SETVI [14]: 40; herbicidal activity SETVI [14]: 100%; Herbicidal efficacy against CYPES ([15]; 80 g/ha): 100; Herbicidal efficacy against CYPES ([15]; 320 g/ha): 100; herbicidal activity CYPES [15, 21]: 100%; herbicidal activity AMARE [16]: 100%; Herbicidal efficacy against MATIN ([17]; dosage 80 g/ha): 100; Herbicidal efficacy against MATIN ([17]; dosage 320 g/ha): 100; herbicidal activity MATIN ([17]; dosage 320 g/ha): 100%; herbicidal activity ABUTH [18]: 100%; Herbicidal efficacy against STEME [19]: 60; Herbicidal activity STEME [19]: 90%; Herbicidal efficacy against ALOMY ([20]; 80 g/ha): 60; Herbicidal efficacy against ALOMY ([20]; 320 g/ha): 90; herbicidal activity ALOMY [20, 21]: 90%
